Earlier results, collected in patent publication EP2382994A1, “Ligand targeted nanocapsules for the delivery of RNAi and other agents” (Cattaneo, Maurizio Victor, priority 2010, dated 2011).

Experiments:
[1] = systemic delivery of 20 mg DOX; Tang et al. 2007

For `COc1cccc2c1C(=O)c1c(O)c3c(c(O)c1C2=O)C[C@@](O)(C(=O)CO)C[C@@H]3O[C@H]1C[C@H](N)[C@H](O)[C@H](C)O1` [DOX, Doxorubicin], which “lethal toxicity, time of treatment” value [1] is on record?
Its value is no more than 8 days.

What about the “clinical efficacy in melanoma” value (advanced stage melanoma) of the same compound?
The value was “essentially ineffective”.
